{"source": "patent US20120165383A1", "about": "“INFLAMMATORY EYE DISEASE” (MASSACHUSETTS EYE & EAR INFIRMARY, priority 2004, published 2012)", "key": {"[1]": {"details": "attributed to instability; cited from earlier work"}, "VEGF": {"system": "VEGF", "experiment": "Retinal VEGF levels, ELISA, EIU rats", "assay_type": "in vivo, rat", "details": "for LPS-induced increase of VEGF levels in the retina: 1 mg/kg GA i.p. 24 h before LPS, FIG. 5", "method": "(§1) Materials and Methods: Female Lewis rats received a single intraperitoneal injection of 1 mg/kg GA or vehicle (DMSO). EIU was induced 24 hours later by a footpad injection of 200 mg/kg lipopolysaccharide (LPS).\n(§2) Retinal levels of VEGF, TNF-α, and leukocyte total levels of the LPS receptor CD14 were quantified with an ELISA method, whereas membranous CD14 levels were assessed with membrane precipitation and subsequent immunoblotting. For the ELISA, one day after the administration of the LPS rats were euthanized and retinal lysates were prepared on ice in RIPA lysis buffer (1% NP-40, 0.5% deoxycholate (DOC), 1% SDS, 150 mmol/L NaCl, 50 mmol/L Tris-HCl [pH 8.0]) containing sodium fluorid, […], phenylmethylsulfonylfluorid (PMSF), leupeptin and aprotinin. Protein concentration was determined by Bradford assay (Protein Assay, Bio-Rad, Hercules, Calif.). Samples containing the same amount of protein were assayed for their VEGF, TNF-α and CD14 levels with a commercially available kit (R&D systems, CA) as per the instructions of the manufacturer."}, "TNF-α": {"system": "TNF-α", "experiment": "Retinal TNF-α levels, ELISA, EIU rats", "assay_type": "in vivo, rat", "details": "for LPS-induced increase of TNF-alpha levels in the retina: 1 mg/kg GA i.p. 24 h before LPS, FIG. 6", "method": "as §1, §2"}, "[2]": {"details": "Phase I trials in various neoplasias; cited from earlier work"}, "leukocyte adhesion [3]": {"system": "leukocyte adhesion", "experiment": "Quantitative endothelial cell-neutrophil adhesion assay in vitro, endotoxin-induced uveitis (EIU) rats", "assay_type": "cell-based, rat", "details": "1 mg/kg GA i.p. 24 h before LPS; evaluated 24 h after LPS; vs DMSO vehicle", "method": "as §1\n(§3) Twenty-four hours after the administration of LPS, leukocyte adhesion was evaluated in vitro with quantitative endothelial cell-neutrophil adhesion assays and ex vivo with concanavalin A lectin staining of retinal flatmounts, as follows. After the induction of deep anesthesia in the rat, the chest cavity was opened, and a 14-gauge perfusion cannula was introduced to the left ventricle. The right atrium was opened with a 12-gauge needle to achieve outflow. With the heart providing the motive force, 250 mL/kg PBS was administered from the perfusion cannula to remove erythrocytes and non-adherent leukocytes. […] Lectin staining was followed by 1% bovine serum albumin (BSA)/PBS perfusion for 1 minute, and PBS perfusion alone for 4 minutes, to remove excess concanavalin A. The retinas were flatmounted in a water-based fluorescence anti-fading medium (Fluoromount; Southern Biotechnology, Birmingham, Ala.) and imaged by fluorescence microscopy (Axioplan, FITC filter, 40×; Carl Zeiss, Oberkochen, Germany). […] Leukocyte location was scored as being either arteriolar, venular, or capillary. The total number of adherent leukocytes per retina was counted. […]"}, "leukocyte adhesion [4]": {"system": "leukocyte adhesion", "experiment": "Leukocyte adhesion ex vivo, concanavalin A lectin staining of retinal flatmounts, EIU rats", "assay_type": "in vivo, rat", "details": "1 mg/kg GA i.p. 24 h before LPS, evaluated 24 h after LPS, FIGS. 9-11", "method": "as §1, §3"}, "[5]": {"system": "myeloperoxidase (MPO) activity", "experiment": "Leukocyte activation, myeloperoxidase (MPO) activity assay, EIU rats", "assay_type": "in vivo, rat", "details": "1 mg/kg GA i.p. 24 h before LPS, leukocytes from rats with EIU, FIG. 7", "method": "as §1\n(§4) Leukocyte activation was quantified with a myeloperoxidase (MPO) activity assay and blood-retinal barrier breakdown was assessed by Evans Blue extravasation. Animals were anesthetized and Evans blue dye (Sigma) dissolved in normal saline (30 mg/ml) was injected through the tail vein at a dosage of 45 mg/kg body weight. After the dye had circulated for 120 minutes, the chest cavity was opened and blood samples were obtained from the left ventricle to assess the Evans blue plasma concentration. These blood samples were centrifuged at 16,000 g for 5 minutes. […] The absorbance of Evans blue was measured by spectrophotometry as described below. […] The background-subtracted absorbance was determined by measuring each sample at 620 nm (absorbance maximum for Evans blue in formamide) and 740 nm (absorbance minimum). The concentrations of dye in the extracts and the blood samples were calculated using a standard curve of Evans blue in formamide. Blood-ocular barrier breakdown was calculated using the following equation, with results being expressed in microliters of plasma per gram of retina dry weight times hours of dye circulating time. […]"}, "blood-retinal barrier": {"system": "blood-retinal barrier", "experiment": "Blood-retinal barrier breakdown by Evans Blue extravasation, EIU rats", "assay_type": "in vivo, rat", "details": "1 mg/kg GA i.p. 24 h before LPS", "method": "as §1, §4"}, "NF-κB": {"system": "NF-κB", "experiment": "Retinal NF-κB activity, modified ELISA (Trans-AM), EIU rats", "assay_type": "in vivo, rat", "details": "1 mg/kg GA i.p. 24 h before LPS, FIG. 4", "method": "as §1\n(§5) Retinal activities of NF-κB and HIF-1α were quantified with a modified ELISA method as described in Poulaki et al., Am. J. Pathol. 165(2):457-69 (2004) and Poulaki et al., J. Clin. Invest. 109(6):805-15 (2002). NF-κB activation was analyzed using the Trans-AM NF-κB […] transcription factor assay kit (Active Motif, Carlsbad, Calif.) according to the manufacturer's instructions, as previously described (Mitsiades et al., Proc. Natl. Acad. Sci. USA, 99:14374-14379 (2002); Mitsiades et al., Blood, 99:4525-4530 (2002)). […] Transcription factor binding to the target oligonucleotide was detected by incubation with respective specific primary monoclonal antibodies, visualized by anti-IgG horseradish peroxidase conjugate and developing solution, and quantified at 450 nm with a reference wavelength of 655 nm. Background binding was calculated by adding in selected wells the respective consensus oligonucleotides in excess (20 pmol/well) as soluble competitors that prevented transcription factor binding to the probe immobilized on the plate. […]"}, "HIF-1α": {"system": "HIF-1α", "experiment": "Retinal HIF-1α activity, modified ELISA binding assay, EIU rats", "assay_type": "in vivo, rat", "details": "1 mg/kg GA i.p. 24 h before LPS, FIG. 3", "method": "as §1, §5"}, "CD14": {"system": "CD14", "experiment": "Leukocyte total levels of the LPS receptor CD14, EIU rats", "assay_type": "in vivo, rat", "details": "1 mg/kg GA i.p. 24 h before LPS, FIG. 1", "method": "as §1, §2"}, "membrane CD14": {"system": "membrane CD14", "experiment": "Membranous CD14 levels in leukocytes, membrane precipitation and immunoblotting, EIU rats", "assay_type": "in vivo, rat", "details": "1 mg/kg GA i.p. 24 h before LPS, FIG. 2", "quoted_text": "Retinal levels of VEGF, TNF-α, and leukocyte total levels of the LPS receptor CD14 were quantified with an ELISA method, whereas membranous CD14 levels were assessed with membrane precipitation and subsequent immunoblotting. […] Protein concentration was determined by Bradford assay (Protein Assay, Bio-Rad, Hercules, Calif.). […]\nNeutrophils were isolated from whole blood by density gradient centrifugation with Histopaque® 1083 cell separation media (Sigma, St Louis, Mo.) according to the manufacturer's instructions. […] The preparations contained>85% monocytes as determined by eosin and methylene blue staining (Leukostat Staining System, Fisher Scientific, Pittsburgh, Pa.). […] The samples were cleared by centrifugation (14,000 rpm, 30 min, 40° C.) and assessed for protein concentration. Biotinylated proteins, representing the cell surface proteins, were immunoprecipitated with Streptavidin-agarose for 2 hours at 40° C., electrophoresed in an SDS-PAGE and CD14 levels were detected by Western Blotting as described."}, "[6]": {"system": "intercellular adhesion molecule 1 (ICAM-1)", "experiment": "Retinal ICAM-1 levels, EIU rats", "assay_type": "in vivo, rat", "details": "rats with EIU; FIG. 8", "method": "as §1"}, "[7]": {"details": "stated for 17AAG in the description, no conditions given"}}}
{"smiles": "C[C@@H]1C[C@H]2O[C@@H]2/C=C\\C=C\\C(=O)Cc2c(Cl)c(O)cc(O)c2C(=O)O1", "note": "[radicicol, Radicicol]", "values": [{"measurement": "activity in animals", "setting": "[1]", "result": "little or no activity"}]}
{"smiles": "C=CCNC1=C2C[C@@H](C)C[C@H](OC)[C@H](O)[C@@H](C)/C=C(\\C)[C@H](OC(N)=O)[C@@H](OC)/C=C\\C=C(/C)C(=O)NC(=CC1=O)C2=O", "note": "[17AAG, 17-Allylamino-17-demethoxygeldanamycin]", "values": [{"measurement": "expression of VEGF", "setting": "VEGF; [7]", "result": "reduces"}, {"measurement": "expression of TNF-α", "setting": "TNF-α; [7]", "result": "reduces"}, {"measurement": "pharmacokinetic profile", "setting": "[2]", "result": "favorable pharmacokinetic profile"}, {"measurement": "side effects", "setting": "[2]", "result": "transient and manageable side effects"}]}
{"smiles": "COC1=C2C[C@@H](C)C[C@H](OC)[C@H](O)[C@@H](C)/C=C(\\C)[C@H](OC(N)=O)[C@@H](OC)/C=C\\C=C(/C)C(=O)NC(=CC1=O)C2=O", "note": "[Geldanamycin]", "values": [{"measurement": "LPS-induced increase in leukocyte adhesion in vitro", "setting": "leukocyte adhesion [3]", "result": "significantly suppressed"}, {"measurement": "LPS-induced increase in leukocyte adhesion ex vivo", "setting": "leukocyte adhesion [4]", "result": "significantly suppressed"}, {"measurement": "MPO activity", "setting": "[5]", "result": "significantly suppressed"}, {"measurement": "MPO activity", "setting": "[5]; listed as geldanamycin", "result": "reduces"}, {"measurement": "vascular leakage (blood-retinal barrier breakdown)", "setting": "blood-retinal barrier; FIG. 12", "result": "significantly suppressed"}, {"measurement": "vascular leakage (blood-retinal barrier breakdown)", "setting": "blood-retinal barrier; FIG. 12, listed as geldanamycin", "result": "decreases"}, {"measurement": "LPS-induced increase of NF-κB activity in the retina", "setting": "NF-κB", "result": "significantly suppressed"}, {"measurement": "LPS-induced increase of NF-κB activity in the retina", "setting": "NF-κB; listed as geldanamycin", "result": "decreases"}, {"measurement": "LPS-induced increase of HIF-1α activity in the retina", "setting": "HIF-1α", "result": "significantly suppressed"}, {"measurement": "LPS-induced increase of HIF-1α activity in the retina", "setting": "HIF-1α; listed as geldanamycin", "result": "decreases"}, {"measurement": "LPS-induced increase of VEGF levels in the retina", "setting": "VEGF", "result": "significantly suppressed"}, {"measurement": "LPS-induced increase of VEGF levels in the retina", "setting": "VEGF; listed as geldanamycin", "result": "decreases"}, {"measurement": "LPS-induced increase of TNF-alpha levels in the retina", "setting": "TNF-α", "result": "significantly suppressed"}, {"measurement": "LPS-induced increase of TNF-alpha levels in the retina", "setting": "TNF-α; listed as geldanamycin", "result": "decreases"}, {"measurement": "LPS-induced increase in total CD14 levels in the leukocytes", "setting": "CD14", "result": "does not affect"}, {"measurement": "LPS-induced increase in total CD14 levels in the leukocytes", "setting": "CD14; listed as GA", "result": "did not reduce"}, {"measurement": "membrane CD14 levels in leukocytes", "setting": "membrane CD14", "result": "decreases"}, {"measurement": "membrane CD14 levels in leukocytes", "setting": "membrane CD14; listed as GA", "result": "significantly decreased"}, {"measurement": "LPS-induced upregulation of retinal ICAM-1 levels", "setting": "[6]", "result": "decreases"}]}
